In the supplement of paper PMC6045584:
± gives the standard deviation of the averaged measurements.

Key:
VISMODEGIB = compound: CS(=O)(=O)c1ccc(C(=O)Nc2ccc(Cl)c(-c3ccccn3)c2)c(Cl)c1 [VISMODEGIB]; test: surviving fraction relative to DMSO-only wells; higher = less growth inhibition; conditions: exposure time: 5 days
How it was run: (§1)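 Tumour cell lines were grown to log phase and seeded at 250–500 cells per well in 384-well plates. They were exposed continuously to inhibitors at 0.5, 1, 5, 10, 50, 100, 500 and 1000 nM for five days, beginning 24 hours after seeding. Surviving fraction is CellTiter-Glo luminescence normalised to the median of DMSO-only wells.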

SALINOMYCIN = compound: CC[C@@H](C(=O)[C@@H](C)[C@@H](O)[C@H](C)[C@@H]1O[C@@H]([C@@H](CC)C(=O)O)CC[C@@H]1C)[C@H]1O[C@]2(C=C[C@@H](O)[C@]3(CC[C@@](C)([C@H]4CC[C@](O)(CC)[C@H](C)O4)O3)O2)[C@H](C)C[C@@H]1C [SALINOMYCIN]; test: as above; conditions: exposure time: 5 days
How it was run: as §1

Test System	surviving fraction (VISMODEGIB; 0.5 nM)	surviving fraction (VISMODEGIB; 1 nM)	surviving fraction (VISMODEGIB; 5 nM)	surviving fraction (VISMODEGIB; 10 nM)	surviving fraction (VISMODEGIB; 50 nM)	surviving fraction (VISMODEGIB; 100 nM)	surviving fraction (VISMODEGIB; 500 nM)	surviving fraction (VISMODEGIB; 1000 nM)	surviving fraction (SALINOMYCIN; 0.5 nM)	surviving fraction (SALINOMYCIN; 1 nM)	surviving fraction (SALINOMYCIN; 5 nM)	surviving fraction (SALINOMYCIN; 10 nM)	surviving fraction (SALINOMYCIN; 50 nM)	surviving fraction (SALINOMYCIN; 100 nM)	surviving fraction (SALINOMYCIN; 500 nM)	surviving fraction (SALINOMYCIN; 1000 nM)
ASKA SYNOVIAL	1.04 ± 0.03	1.07 ± 0.046	1.08 ± 0.086	1.11 ± 0.039	0.939 ± 0.03	0.964 ± 0.05	0.926 ± 0.048	0.951 ± 0.055	1.05 ± 0.088	0.926 ± 0.086	1.02 ± 0.1	0.582 ± 0.048	1.14 ± 0.034	1.03 ± 0.016	0.797 ± 0.073	0.441 ± 0.037
H23 LUNG	0.981 ± 0.01	0.997 ± 0.043	1.05 ± 0.03	1.022 ± 0.0032	1 ± 0.069	1.16 ± 0.072	1.01 ± 0.034	1.06 ± 0.067	0.969 ± 0.043	0.957 ± 0.055	0.9683 ± 0.0096	0.959 ± 0.04	1.21 ± 0.03	1.19 ± 0.028	0.622 ± 0.012	0.399 ± 0.007
SG27 HEADNECK	0.942 ± 0.013	0.974 ± 0.13	1 ± 0.062	0.962 ± 0.071	0.933 ± 0.039	0.961 ± 0.052	0.9 ± 0.052	1.03 ± 0.13	1.03 ± 0.099	1.09 ± 0.17	0.997 ± 0.11	0.921 ± 0.094	1.12 ± 0.08	1.1 ± 0.074	0.249 ± 0.028	0.184 ± 0.015
BT549 BREAST	1.02 ± 0.047	1.01 ± 0.12	1.09 ± 0.15	1.09 ± 0.15	0.76 ± 0.23	0.799 ± 0.19	0.744 ± 0.071	0.75 ± 0.018	0.999 ± 0.033	1.18 ± 0.079	1.02 ± 0.056	0.93 ± 0.031	0.891 ± 0.35	0.73 ± 0.39	0.523 ± 0.2	0.341 ± 0.079
SG43 HEADNECK	0.961 ± 0.18	1.15 ± 0.63	0.861 ± 0.075	0.972 ± 0.32	1.18 ± 0.35	0.9673 ± 0.0015	1.17 ± 0.3	1.18 ± 0.14	0.921 ± 0.12	1.2 ± 0.14	0.776 ± 0.14	1.05 ± 0.13	0.954 ± 0.14	1.16 ± 0.13	0.459 ± 0.023	0.285 ± 0.11
MDAMB157 BREAST	0.901 ± 0.11	0.943 ± 0.098	1.02 ± 0.04	0.966 ± 0.06	1.02 ± 0.11	1.13 ± 0.12	1.01 ± 0.049	0.977 ± 0.061	0.881 ± 0.017	0.904 ± 0.042	0.985 ± 0.073	0.99 ± 0.044	0.982 ± 0.078	0.819 ± 0.054	0.217 ± 0.043	0.139 ± 0.011
SJSA1 BONE	0.999 ± 0.043	1.01 ± 0.07	1.04 ± 0.024	1.01 ± 0.045	1.04 ± 0.073	1.02 ± 0.052	1.02 ± 0.093	0.985 ± 0.05	1 ± 0.033	0.992 ± 0.011	1.02 ± 0.041	1 ± 0.033	1.02 ± 0.023	0.966 ± 0.023	0.404 ± 0.041	0.27 ± 0.043
CAL120 BREAST	0.987 ± 0.019	0.968 ± 0.018	0.999 ± 0.012	1 ± 0.012	0.997 ± 0.021	1.01 ± 0.013	0.942 ± 0.013	0.989 ± 0.016	0.8885 ± 0.0083	0.893 ± 0.0056	0.877 ± 0.021	0.8868 ± 0.0073	0.661 ± 0.01	0.334 ± 0.015	0.088 ± 0.0061	0.0535 ± 0.0022
SKBR3 BREAST	1.15 ± 0.085	0.954 ± 0.027	0.907 ± 0.059	0.975 ± 0.09	1.01 ± 0.068	0.896 ± 0.029	0.764 ± 0.026	0.774 ± 0.075	1 ± 0.13	1.09 ± 0.2	0.927 ± 0.12	0.997 ± 0.051	1.05 ± 0.12	0.98 ± 0.17	0.238 ± 0.025	0.109 ± 0.015
A549 LUNG	0.979 ± 0.018	0.9893 ± 0.0035	1.01 ± 0.033	1.02 ± 0.045	0.994 ± 0.017	1.06 ± 0.035	1.01 ± 0.032	1.03 ± 0.069	0.944 ± 0.028	0.9123 ± 0.005	0.95 ± 0.033	0.907 ± 0.022	1.03 ± 0.028	0.97 ± 0.03	0.729 ± 0.018	0.528 ± 0.033
